Experimental data as given in patent publication US20150111262A1, “METHODS AND MATERIALS FOR PRODUCING FIVE CARBON BUILDING BLOCKS FROM PROLINE” (INVISTA North America S.á r.l., priority 2013, published 2015).

How the values were obtained:
[1] = tested on: ω-transaminase of SEQ ID NO: 7; test: ω-transaminase activity, cadaverine to 5-aminopentanal; assay type: biochemical, Chromobacterium violaceum
Method: (§1) A sequence encoding an N-terminal His-tag was added to the Chromobacterium violaceum, Pseudomonas aeruginosa, Pseudomonas syringae and Escherichia coli genes encoding the ω-transaminases of SEQ ID NOs: 7, 8, 9 and 11, respectively (see FIG. 7) such that N-terminal HIS tagged ω-transaminases could be produced. The modified genes were cloned into a pET21a expression vector under the T7 promoter. Each expression vector was transformed into a BL21[DE3] E. coli host. Each resulting recombinant E. coli strain were cultivated at 37° C. in a 250 mL shake flask culture containing 50 mL LB media and antibiotic selection pressure, with shaking at 230 rpm. Each culture was induced overnight at 16° C. using 1 mM IPTG.
(§2) The pellet from each induced shake flask culture was harvested via centrifugation. Each pellet was resuspended and lysed via sonication. The cell debris was separated from the supernatant via centrifugation and the cell free extract was used immediately in enzyme activity assays.
(§3) Enzyme activity assays in the reverse direction (i.e., cadaverine to 5-aminopentanal) were performed in a buffer composed of a final concentration of 50 mM HEPES buffer (pH=7.5), 10 mM cadaverine, 10 mM pyruvate, and 100 μM pyridoxyl 5′ phosphate. […] The formation of L-alanine was quantified via RP-HPLC.

[2] = tested on: ω-transaminase of SEQ ID NO: 8; test: as above; assay type: biochemical, Pseudomonas aeruginosa
Method: as §1, §2, §3

[3] = tested on: ω-transaminase of SEQ ID NO: 9; test: as above; assay type: biochemical, Pseudomonas syringae
Method: as §1, §2, §3

[4] = target: T1, ω-transaminase of SEQ ID NO: 11 (Escherichia coli, UniProt P42588); test: as above; assay type: biochemical
T1 construct: His-tag (N); made in house; host or cells: E. coli BL21[DE3], pET21a; cell free extract used
Method: as §1, §2, §3

[5] = tested on: ω-transaminase of SEQ ID NO: 7; test: ω-transaminase activity, 5-aminopentanoate to glutarate semialdehyde (forward direction); assay type: biochemical, Chromobacterium violaceum
Method: (§4) A sequence encoding an N-terminal His-tag was added to the genes from Chromobacterium violaceum and Pseudomonas syringae encoding the ω-transaminases of SEQ ID NOs: 7 and 9, respectively (see FIG. 7) such that N-terminal HIS tagged ω-transaminases could be produced. Each of the resulting modified genes was cloned into a pET21a expression vector under control of the T7 promoter and each expression vector was transformed into a BL21[DE3] E. coli host. The resulting recombinant E. coli strains were cultivated at 37° C. in a 250 mL shake flask culture containing 50 mL LB media and antibiotic selection pressure, with shaking at 230 rpm. Each culture was induced overnight at 16° C. using 1 mM IPTG.
as §2
Enzyme activity assays in the forward direction (i.e., 5-aminopentanoate to glutarate semialdehyde) were performed in a buffer composed of a final concentration of 50 mM HEPES buffer (pH=7.5), 10 mM 5-aminopentanoate, 10 mM pyruvate and 100 μM pyridoxyl 5′ phosphate. […] The formation of L-alanine from pyruvate was quantified via RP-HPLC.

[6] = tested on: ω-transaminase of SEQ ID NO: 9; test: ω-transaminase activity, glutarate semialdehyde to 5-aminopentanoate (reverse direction); assay type: biochemical, Pseudomonas syringae; settings: SEQ ID 9
Method: as §4, §2
Enzyme activity in the reverse direction (i.e., glutarate semialdehyde to 5-aminopentanoate) were performed in a buffer composed of a final concentration of 50 mM HEPES buffer (pH=7.5), 10 mM glutarate semialdehyde, 10 mM L-alanine and 100 μM pyridoxyl 5′ phosphate. […] The formation of pyruvate was quantified via RP-HPLC.

[7] = tested on: ω-transaminase of SEQ ID NO: 7; test: ω-transaminase activity, 5-aminopentanol to 5-oxopentanol; assay type: biochemical, Chromobacterium violaceum
Method: (§5) A nucleotide sequence encoding an N-terminal His-tag was added to the Chromobacterium violaceum, Pseudomonas aeruginosa, Pseudomonas syringae, Rhodobacter sphaeroides, Escherichia coli and Vibrio Fluvialis genes encoding the ω-transaminases of SEQ ID NOs: 7-12 respectively (see FIG. 7) such that N-terminal HIS tagged ω-transaminases could be produced. The modified genes were cloned into a pET21a expression vector under the T7 promoter. Each expression vector was transformed into a BL21[DE3] E. coli host. Each resulting recombinant E. coli strain were cultivated at 37° C. in a 250 mL shake flask culture containing 50 mL LB media and antibiotic selection pressure, with shaking at 230 rpm. Each culture was induced overnight at 16° C. using 1 mM IPTG.
as §2
(§6) Enzyme activity assays in the reverse direction (i.e., 5-aminopentanol to 5-oxopentanol) were performed in a buffer composed of a final concentration of 50 mM HEPES buffer (pH=7.5), 10 mM 5-aminopentanol, 10 mM pyruvate, and 100 μM pyridoxyl 5′ phosphate. […] The formation of L-alanine was quantified via RP-HPLC.

[8] = tested on: ω-transaminase of SEQ ID NO: 8; test: as above; assay type: biochemical, Pseudomonas aeruginosa
Method: as §5, §2, §6

[9] = tested on: ω-transaminase of SEQ ID NO: 9; test: as above; assay type: biochemical, Pseudomonas syringae
Method: as §5, §2, §6

[10] = tested on: ω-transaminase of SEQ ID NO: 10; test: as above; assay type: biochemical, Rhodobacter sphaeroides
Method: as §5, §2, §6

[11] = target: T1, ω-transaminase of SEQ ID NO: 11; test: as above; assay type: biochemical
Method: as §5, §2, §6

[12] = tested on: ω-transaminase of SEQ ID NO: 12; test: as above; assay type: biochemical, Vibrio Fluvialis
Method: as §5, §2, §6

[13] = target: gene product of ygjG (Escherichia coli, UniProt P42588); settings: Samsonova et al., BMC Microbiology, 2003; cited from earlier work
gene product of ygjG, sequence (P42588 whole entry): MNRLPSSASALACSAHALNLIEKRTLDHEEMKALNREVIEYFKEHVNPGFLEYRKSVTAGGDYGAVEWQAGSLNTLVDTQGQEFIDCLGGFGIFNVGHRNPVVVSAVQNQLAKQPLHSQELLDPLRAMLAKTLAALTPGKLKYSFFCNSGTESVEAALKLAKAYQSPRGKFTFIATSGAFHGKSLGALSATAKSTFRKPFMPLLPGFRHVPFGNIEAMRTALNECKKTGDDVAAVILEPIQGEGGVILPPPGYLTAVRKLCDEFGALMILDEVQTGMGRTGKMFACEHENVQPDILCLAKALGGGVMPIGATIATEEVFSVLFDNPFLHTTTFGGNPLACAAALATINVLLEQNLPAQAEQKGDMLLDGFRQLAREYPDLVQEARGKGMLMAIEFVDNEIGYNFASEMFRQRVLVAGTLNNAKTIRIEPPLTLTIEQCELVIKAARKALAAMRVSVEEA

T1 sequence (P42588 whole entry): as above

NCCCCC=O [5-aminopentanal]
acceptance as substrate, forming cadaverine, concluded from reversibility of the ω-transaminase activity ([1]; SEQ ID 7): accept 5-aminopentanal as substrate
acceptance as substrate, forming cadaverine, concluded from reversibility of the ω-transaminase activity ([2]; SEQ ID 8): accept 5-aminopentanal as substrate
acceptance as substrate, forming cadaverine, concluded from reversibility of the ω-transaminase activity ([3]; SEQ ID 9): accept 5-aminopentanal as substrate
acceptance as substrate, forming cadaverine, concluded from reversibility of the ω-transaminase activity ([4]; SEQ ID 11): accept 5-aminopentanal as substrate

NCCCCC(=O)O [5-aminopentanoate]
acceptance as substrate, forming 5-oxopentanoate, concluded from reversibility of the ω-transaminase activity ([5]; SEQ ID 7): accept 5-aminopentanoate as substrate
acceptance as substrate (conversion of pyruvate to L-alanine) vs empty vector control ([5]; cell free extract, 10 mM 5-aminopentanoate, 10 mM pyruvate, pH 7.5, 25° C., 4 h, RP-HPLC, FIG. 8): accepted 5-aminopentanoate as substrate
acceptance as substrate, forming 5-oxopentanoate, concluded from reversibility of the ω-transaminase activity [6]: accept 5-aminopentanoate as substrate

NCCCCCO [5-aminopentanol]
acceptance as substrate (conversion of pyruvate to L-alanine) vs empty vector control ([7]; SEQ ID NO 7, 10 mM 5-aminopentanol, 10 mM pyruvate, pH 7.5, 25° C., 4 h, FIG. 13): accepted 5-aminopentanol as substrate
acceptance as substrate (conversion of pyruvate to L-alanine) vs empty vector control ([8]; SEQ ID NO 8, 10 mM 5-aminopentanol, 10 mM pyruvate, pH 7.5, 25° C., 4 h, FIG. 13): accepted 5-aminopentanol as substrate
acceptance as substrate (conversion of pyruvate to L-alanine) vs empty vector control ([9]; SEQ ID NO 9, 10 mM 5-aminopentanol, 10 mM pyruvate, pH 7.5, 25° C., 4 h, FIG. 13): accepted 5-aminopentanol as substrate
acceptance as substrate (conversion of pyruvate to L-alanine) vs empty vector control ([10]; SEQ ID NO 10, 10 mM 5-aminopentanol, 10 mM pyruvate, pH 7.5, 25° C., 4 h, FIG. 13): accepted 5-aminopentanol as substrate
acceptance as substrate (conversion of pyruvate to L-alanine) vs empty vector control ([11]; SEQ ID NO 11, 10 mM 5-aminopentanol, 10 mM pyruvate, pH 7.5, 25° C., 4 h, FIG. 13): accepted 5-aminopentanol as substrate
acceptance as substrate (conversion of pyruvate to L-alanine) vs empty vector control ([12]; SEQ ID NO 12, 10 mM 5-aminopentanol, 10 mM pyruvate, pH 7.5, 25° C., 4 h, FIG. 13): accepted 5-aminopentanol as substrate

O=CCCCCO [5-oxopentanol]
acceptance as substrate, forming 5-aminopentanol, concluded from reversibility of the ω-transaminase activity ([7]; SEQ ID 7): accept 5-oxopentanol as substrate
acceptance as substrate, forming 5-aminopentanol, concluded from reversibility of the ω-transaminase activity ([8]; SEQ ID 8): accept 5-oxopentanol as substrate
acceptance as substrate, forming 5-aminopentanol, concluded from reversibility of the ω-transaminase activity ([9]; SEQ ID 9): accept 5-oxopentanol as substrate
acceptance as substrate, forming 5-aminopentanol, concluded from reversibility of the ω-transaminase activity ([10]; SEQ ID 10): accept 5-oxopentanol as substrate
acceptance as substrate, forming 5-aminopentanol, concluded from reversibility of the ω-transaminase activity ([11]; SEQ ID 11): accept 5-oxopentanol as substrate
acceptance as substrate, forming 5-aminopentanol, concluded from reversibility of the ω-transaminase activity ([12]; SEQ ID 12): accept 5-oxopentanol as substrate

NCCCCCN [cadaverine]
acceptance as substrate (conversion of pyruvate to L-alanine) vs empty vector control ([1]; SEQ ID NO 7, 10 mM cadaverine, 10 mM pyruvate, pH 7.5, 25° C., 4 h, FIG. 14): accepted cadaverine as substrate
acceptance as substrate (conversion of pyruvate to L-alanine) vs empty vector control ([2]; SEQ ID NO 8, 10 mM cadaverine, 10 mM pyruvate, pH 7.5, 25° C., 4 h, FIG. 14): accepted cadaverine as substrate
acceptance as substrate (conversion of pyruvate to L-alanine) vs empty vector control ([3]; SEQ ID NO 9, 10 mM cadaverine, 10 mM pyruvate, pH 7.5, 25° C., 4 h, FIG. 14): accepted cadaverine as substrate
acceptance as substrate (conversion of pyruvate to L-alanine) vs empty vector control ([4]; SEQ ID NO 11, 10 mM cadaverine, 10 mM pyruvate, pH 7.5, 25° C., 4 h, FIG. 14): accepted cadaverine as substrate
acceptance as diamine substrate [13]: accepts

NCCCCN [putrescine]
acceptance as diamine substrate [13]: accepts

NCCCCNCCCN [spermidine]
acceptance as diamine substrate [13]: accepts
